The values below come from patent publication US20230219979A1, “PYRAZOLO[1,5-a]PYRIDINE COMPOUND, PREPARATION METHOD THEREFOR AND USE THEREOF” (SHENZHEN ZHONGGE BIOLOGICAL TECHNOLOGY CO., LTD., priority 2019, published 2023).

pIC50: −log10 of the molar value.

One test has as its target RET M918T (Homo sapiens, UniProt P07949, M918T). The test can be described thus: Inhibitory activity against RET kinase mutant RET M918T. It is filed as biochemical. Particulars: read-out: median inhibitory activity (IC50) against RET M918T.
A further test has as its target RET G810S kinase (Homo sapiens, UniProt P07949, G810S). Nature of the test: HTRF method for testing the inhibitory activity against RET G810S. In kind it is biochemical. Particulars: for pIC50: HTRF; for inhibitory activity against G810S (in words): mutant strain of RET kinase.
The target of a further test is RET V804M (Homo sapiens, UniProt P07949, V804M). Nature of the test: Inhibitory activity against RET kinase mutant RET V804M. In kind it is biochemical. Conditions: read-out: median inhibitory activity (IC50) against RET V804M.
In another test the target is T1, CCDC6-RET (Homo sapiens, UniProt P07949).
T1 construct: CCDC6 (fusion partner, N-terminal part); the other entry of the earlier key: CCDC6 (Q16204, Coiled-coil domain-containing protein 6)
T1 sequence (P07949 with tags, fused parts or gaps): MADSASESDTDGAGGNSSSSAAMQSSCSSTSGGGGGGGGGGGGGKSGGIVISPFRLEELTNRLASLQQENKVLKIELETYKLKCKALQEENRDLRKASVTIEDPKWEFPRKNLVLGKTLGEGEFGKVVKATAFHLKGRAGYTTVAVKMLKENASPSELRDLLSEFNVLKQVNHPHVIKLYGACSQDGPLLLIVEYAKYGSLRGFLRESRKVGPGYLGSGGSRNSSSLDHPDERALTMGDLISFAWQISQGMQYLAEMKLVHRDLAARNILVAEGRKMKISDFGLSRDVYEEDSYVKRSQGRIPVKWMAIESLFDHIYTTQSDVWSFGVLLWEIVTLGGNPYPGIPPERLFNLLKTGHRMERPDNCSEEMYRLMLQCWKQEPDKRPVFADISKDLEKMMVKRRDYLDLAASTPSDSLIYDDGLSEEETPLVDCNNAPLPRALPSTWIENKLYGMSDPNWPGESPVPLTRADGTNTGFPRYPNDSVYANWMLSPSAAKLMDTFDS
The test can be described thus: Inhibitory activity against RET gene fusion CCDC6-RET. It is filed as biochemical. Particulars: read-out: median inhibitory activity (IC50) against CCDC6-RET.

In a further test the target is VEGFR2 kinase (Homo sapiens, UniProt P35968). The test can be described thus: HTRF method for testing the inhibitory activity of compounds against VEGFR2. It is filed as biochemical. On the technique in general: TR-FRET usually uses a lanthanide donor and a delayed reading to cut background.
For another test, the target named is T2, Ba/F3-KIF5B-RET cell (Homo sapiens, UniProt P07949).
T2 construct: fused on or other part: P33176 (Kinesin-1 heavy chain)
Nature of the test: CellTiter-Glo luminescence assay, inhibitory activity against Ba/F3-KIF5B-RET cell. In kind it is cell-based. Conditions: 72 h, read-out: Ba/F3-KIF5B-RET cell activity. In outline:
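Ba/F3 cells stably expressing human KIF5B-RET, 800 per well, treated 72 h at 37° C with 10 compound concentrations from 5000 to 0.254 nM (0.5% DMSO). Viability by CellTiter-Glo luminescence; IC50 from curve fitting.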

The target in another test is RET G810R kinase (Homo sapiens, UniProt P07949, G810R). Nature of the test: HTRF method for testing the inhibitory activity against RET G810R. It is filed as biochemical. Conditions: for pIC50: HTRF; for inhibitory activity against G810R (in words): mutant strain of RET kinase.
The next test has as its target Wild-type RET kinase (Homo sapiens, UniProt P07949). Nature of the test: HTRF method for testing the inhibitory activity of compounds against RET. In kind it is biochemical. Particulars: HTRF; read-out: Wild-type RET kinase.

RET G810R kinase, sequence (P07949 29-1114 G810R): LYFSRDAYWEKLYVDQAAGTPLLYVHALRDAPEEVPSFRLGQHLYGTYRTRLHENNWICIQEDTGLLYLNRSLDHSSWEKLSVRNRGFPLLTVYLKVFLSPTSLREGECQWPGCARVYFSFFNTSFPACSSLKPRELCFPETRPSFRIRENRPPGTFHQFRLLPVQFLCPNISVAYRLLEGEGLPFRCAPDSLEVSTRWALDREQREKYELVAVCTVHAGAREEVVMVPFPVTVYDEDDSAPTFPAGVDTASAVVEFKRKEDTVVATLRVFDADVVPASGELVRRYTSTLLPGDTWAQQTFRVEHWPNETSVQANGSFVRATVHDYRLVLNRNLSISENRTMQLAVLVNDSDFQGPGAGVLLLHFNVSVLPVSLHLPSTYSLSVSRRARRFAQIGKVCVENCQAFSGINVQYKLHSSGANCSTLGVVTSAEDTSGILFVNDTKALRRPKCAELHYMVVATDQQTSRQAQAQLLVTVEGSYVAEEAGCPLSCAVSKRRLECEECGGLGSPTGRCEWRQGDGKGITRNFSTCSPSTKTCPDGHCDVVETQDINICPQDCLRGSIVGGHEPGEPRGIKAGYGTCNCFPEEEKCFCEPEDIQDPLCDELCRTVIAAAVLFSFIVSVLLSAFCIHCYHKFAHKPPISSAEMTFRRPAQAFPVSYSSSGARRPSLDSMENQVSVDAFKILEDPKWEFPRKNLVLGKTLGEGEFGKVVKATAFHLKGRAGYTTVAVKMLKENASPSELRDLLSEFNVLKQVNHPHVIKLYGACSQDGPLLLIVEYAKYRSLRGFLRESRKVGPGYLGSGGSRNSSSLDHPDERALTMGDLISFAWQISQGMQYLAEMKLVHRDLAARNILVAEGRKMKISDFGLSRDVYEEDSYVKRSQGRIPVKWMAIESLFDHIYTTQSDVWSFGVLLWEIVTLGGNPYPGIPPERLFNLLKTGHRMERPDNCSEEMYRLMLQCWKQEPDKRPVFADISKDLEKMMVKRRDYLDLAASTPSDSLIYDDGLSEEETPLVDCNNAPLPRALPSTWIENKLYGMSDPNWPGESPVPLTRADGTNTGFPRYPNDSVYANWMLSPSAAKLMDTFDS
RET G810S kinase, sequence (P07949 29-1114 G810S): as the sequence (P07949 29-1114 G810R) above, with R782S counted along it
Wild-type RET kinase, sequence (P07949 29-1114): as the sequence (P07949 29-1114 G810R) above, with R782G counted along it
T2 sequence (P07949 whole entry, change not shown, the tested form may be a part): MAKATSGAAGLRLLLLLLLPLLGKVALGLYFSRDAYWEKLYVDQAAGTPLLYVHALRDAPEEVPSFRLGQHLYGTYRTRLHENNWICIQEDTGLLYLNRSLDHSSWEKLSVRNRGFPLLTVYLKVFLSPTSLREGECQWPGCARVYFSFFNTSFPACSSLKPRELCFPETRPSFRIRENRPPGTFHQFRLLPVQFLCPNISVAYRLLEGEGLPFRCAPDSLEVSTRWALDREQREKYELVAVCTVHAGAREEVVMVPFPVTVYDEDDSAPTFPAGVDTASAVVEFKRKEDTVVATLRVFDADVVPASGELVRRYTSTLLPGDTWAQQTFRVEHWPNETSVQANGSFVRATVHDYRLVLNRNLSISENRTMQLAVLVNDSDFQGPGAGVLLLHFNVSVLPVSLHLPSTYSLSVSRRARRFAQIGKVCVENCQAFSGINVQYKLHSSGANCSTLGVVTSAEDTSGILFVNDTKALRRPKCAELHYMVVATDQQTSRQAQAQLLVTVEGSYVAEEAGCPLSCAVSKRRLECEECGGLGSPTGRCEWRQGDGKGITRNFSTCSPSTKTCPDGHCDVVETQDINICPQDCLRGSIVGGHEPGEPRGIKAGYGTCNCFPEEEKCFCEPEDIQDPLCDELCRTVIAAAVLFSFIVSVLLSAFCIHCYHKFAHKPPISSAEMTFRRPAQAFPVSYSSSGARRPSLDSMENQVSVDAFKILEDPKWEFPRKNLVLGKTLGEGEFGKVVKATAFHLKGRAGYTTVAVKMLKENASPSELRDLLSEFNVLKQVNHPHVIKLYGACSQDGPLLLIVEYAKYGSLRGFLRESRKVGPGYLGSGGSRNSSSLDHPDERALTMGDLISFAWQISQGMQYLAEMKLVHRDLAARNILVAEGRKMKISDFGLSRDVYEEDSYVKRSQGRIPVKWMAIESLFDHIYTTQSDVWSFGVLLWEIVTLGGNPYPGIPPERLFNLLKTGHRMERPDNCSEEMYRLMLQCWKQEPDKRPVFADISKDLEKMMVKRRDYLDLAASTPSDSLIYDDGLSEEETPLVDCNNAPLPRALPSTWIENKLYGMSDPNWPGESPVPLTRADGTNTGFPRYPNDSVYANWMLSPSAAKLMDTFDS
VEGFR2 kinase, sequence (P35968 20-1356): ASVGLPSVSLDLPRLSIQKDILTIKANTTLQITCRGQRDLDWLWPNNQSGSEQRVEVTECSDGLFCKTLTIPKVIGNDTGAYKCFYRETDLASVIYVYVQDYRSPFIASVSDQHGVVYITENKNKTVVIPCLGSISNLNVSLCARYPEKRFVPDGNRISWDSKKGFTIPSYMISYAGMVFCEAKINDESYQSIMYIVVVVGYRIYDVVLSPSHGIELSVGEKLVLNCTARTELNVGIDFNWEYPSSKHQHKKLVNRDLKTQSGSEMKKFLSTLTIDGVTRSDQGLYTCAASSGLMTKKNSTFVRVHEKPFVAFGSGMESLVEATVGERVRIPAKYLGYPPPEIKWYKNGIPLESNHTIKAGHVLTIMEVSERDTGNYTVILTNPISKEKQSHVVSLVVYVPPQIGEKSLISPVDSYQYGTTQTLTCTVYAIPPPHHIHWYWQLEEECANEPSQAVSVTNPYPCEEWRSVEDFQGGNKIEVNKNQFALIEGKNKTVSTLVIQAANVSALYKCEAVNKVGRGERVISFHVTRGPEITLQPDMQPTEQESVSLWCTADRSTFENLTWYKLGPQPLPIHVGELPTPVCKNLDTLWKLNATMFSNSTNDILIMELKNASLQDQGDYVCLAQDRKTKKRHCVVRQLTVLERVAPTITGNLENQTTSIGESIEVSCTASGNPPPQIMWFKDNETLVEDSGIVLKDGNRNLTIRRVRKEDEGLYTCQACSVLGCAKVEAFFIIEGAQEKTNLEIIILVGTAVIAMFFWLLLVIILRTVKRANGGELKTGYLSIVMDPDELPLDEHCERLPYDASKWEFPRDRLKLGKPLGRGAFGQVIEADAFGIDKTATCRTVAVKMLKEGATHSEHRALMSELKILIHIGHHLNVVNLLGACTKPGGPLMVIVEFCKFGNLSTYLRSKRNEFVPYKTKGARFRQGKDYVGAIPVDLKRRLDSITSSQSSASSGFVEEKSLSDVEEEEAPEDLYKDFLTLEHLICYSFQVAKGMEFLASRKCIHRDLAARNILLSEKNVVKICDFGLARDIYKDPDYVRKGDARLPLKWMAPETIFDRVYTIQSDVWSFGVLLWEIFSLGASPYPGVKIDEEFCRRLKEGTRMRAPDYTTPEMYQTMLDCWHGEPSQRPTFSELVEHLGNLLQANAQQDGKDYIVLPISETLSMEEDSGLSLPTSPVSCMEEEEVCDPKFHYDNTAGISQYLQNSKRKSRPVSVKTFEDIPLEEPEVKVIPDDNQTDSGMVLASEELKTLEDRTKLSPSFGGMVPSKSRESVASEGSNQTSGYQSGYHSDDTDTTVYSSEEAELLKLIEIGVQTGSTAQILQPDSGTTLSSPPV
RET M918T, sequence (P07949 29-1114 M918T): as the sequence (P07949 29-1114 G810R) above, with R782G, M890T counted along it
RET V804M, sequence (P07949 29-1114 V804M): as the sequence (P07949 29-1114 G810R) above, with V776M, R782G counted along it

Turning to `CCNc1cc(-c2cnc(N3CC4CC(C3)N4Cc3ccc(OC)nc3)cn2)c2c(C#N)cnn2c1` [Compound 29, 6-(ethylamino)-4-(5-(-6-((6-methoxypyridin-3-yl)methyl)-3,6-diazabicyclo[3.1.1]heptane-3-yl)pyrazin-2-yl)pyrazolo[1,5-a]pyridine-3-carbonitrile], the pIC50 at RET M918T was above 8.30; against RET G810S kinase it was 8.71; on RET V804M, above 8.30; on CCDC6-RET it was above 8.30; at VEGFR2 kinase, 7.25; at RET G810R kinase it was 7.62. Also, the pIC50 at Wild-type RET kinase is 9.74. In addition, on RET G810S kinase, the “inhibitory activity against G810S (in words)” value was “good inhibitory activity”. At Ba/F3-KIF5B-RET cell, the GI50 came to 4.43 nM. Besides, the “inhibitory activity against G810R (in words)” value at RET G810R kinase is recorded as “good inhibitory activity”.

With `CCNc1cc(-c2ccc(N3CC4CC(C3)N4Cc3ccc(-n4cc(F)cn4)nc3)nc2)c2c(C#N)cnn2c1` [Compound 52, 6-(ethylamino)-4-(6-(6-((6-(4-fluoro-1H-pyrazol-1-yl)pyridin-3-yl)methyl)-3,6-diazabicyclo[3.1.1]heptan-3-yl)pyridin-3-yl)pyrazolo[1,5-a]pyridine-3-carbonitrile], the pIC50 was above 8.30 on RET M918T; above 8.30 at RET V804M; above 8.30 on CCDC6-RET; 7.41 on VEGFR2 kinase; 8.69 on Wild-type RET kinase. The GI50 at Ba/F3-KIF5B-RET cell stood at 142 nM.

Consider `CCNc1cc(-c2ccc(N3CC4CC(C3)N4Cc3ccc(OC)nc3)nc2)c2c(C#N)cnn2c1` [Compound 62, 6-(ethylamino)-4-(6-(6-((6-methoxypyridin-3-yl)methyl)-3,6-diazabicyclo[3.1.1]heptan-3-yl)pyridin-3-yl)pyrazolo[1,5-a]pyridine-3-carbonitrile], for which the pIC50 was 9.10 against RET G810S kinase, 7.70 against VEGFR2 kinase, 8.21 at RET G810R kinase and 9.68 at Wild-type RET kinase. Also, at RET G810S kinase, the “inhibitory activity against G810S (in words)” value was “good inhibitory activity”. The GI50 on Ba/F3-KIF5B-RET cell was determined as 1.82 nM. The “inhibitory activity against G810R (in words)” value against RET G810R kinase is recorded as “good inhibitory activity”.

For the molecule `COc1ccc(CN2C3CC2CN(c2ccc(-c4cc(NCC(C)(C)O)cn5ncc(C#N)c45)cn2)C3)cn1` [Compound 63, 6-((2-hydroxy-2-methylpropyl)amino)-4-(6-(6-((6-methoxypyridin-3-yl)methyl)-3,6-diazabicyclo[3.1.1]heptan-3-yl)pyridin-3-yl)pyrazolo[1,5-a]pyridine-3-carbonitrile], the pIC50 is 7.82 on RET G810S kinase, 7.19 at VEGFR2 kinase, 7.11 against RET G810R kinase and 9.33 on Wild-type RET kinase. The “inhibitory activity against G810S (in words)” value against RET G810S kinase is recorded as “good inhibitory activity”. At Ba/F3-KIF5B-RET cell, the GI50 was determined as 3.39 nM. For the same molecule, the “inhibitory activity against G810R (in words)” value against RET G810R kinase is on record as “good inhibitory activity”.

For `COc1ccc(CN2C3CC2CN(c2cnc(-c4cc(N5CCOCC5)cn5ncc(C#N)c45)cn2)C3)cn1` [Compound 66, 4-(5-(6-((6-methoxypyridin-3-yl)methyl)-3,6-diazabicyclo[3.1.1]heptyl-3-yl)pyrazin-2-yl)-6-morpholinopyrazolo[1,5-a]pyridine-3-carbonitrile], the pIC50 is 7.57 against RET G810S kinase, 6.50 against VEGFR2 kinase, 6.76 against RET G810R kinase and 9.09 on Wild-type RET kinase. In addition, the “inhibitory activity against G810S (in words)” value at RET G810S kinase is recorded as “good inhibitory activity”. Further, on Ba/F3-KIF5B-RET cell, the GI50 came to 6.21 nM. For the same molecule, at RET G810R kinase, the “inhibitory activity against G810R (in words)” value is “good inhibitory activity”.

As for `COc1ccc(CN2C3CC2CN(c2ccc(-c4cc(NCC(C)C)cn5ncc(C#N)c45)cn2)C3)cn1` [Compound 67, 6-(isobutylamino)-4-(6-(6-((6-methoxypyridin-3-yl)methyl)-3,6-diazabicyclo[3.1.1]hept-3-yl)pyridin-3-yl)pyrazolo[1,5-a]pyridine-3-carbonitrile], the pIC50 on RET G810S kinase was 7.96; at VEGFR2 kinase it was 7.34; against RET G810R kinase, 7.04; at Wild-type RET kinase, 9.82. Further, on RET G810S kinase, the “inhibitory activity against G810S (in words)” value is “good inhibitory activity”. In addition, the GI50 on Ba/F3-KIF5B-RET cell was 2.19 nM. Moreover, the “inhibitory activity against G810R (in words)” value on RET G810R kinase was “good inhibitory activity”.

Turning to `CCCCNc1cc(-c2ccc(N3CC4CC(C3)N4Cc3ccc(OC)nc3)nc2)c2c(C#N)cnn2c1` [Compound 68, 6-(butylamino)-4-(6-(6-((6-methoxypyridin-3-yl)methyl)-3,6-diazabicyclo[3.1.1]hept-3-yl)pyridin-3-yl)pyrazolo[1,5-a]pyridine-3-carbonitrile], the pIC50 at RET G810S kinase is 8.21; against VEGFR2 kinase it was 7.22; at RET G810R kinase, 7.31; on Wild-type RET kinase, 9.43. Also, on RET G810S kinase, the “inhibitory activity against G810S (in words)” value is given as “good inhibitory activity”. Moreover, the GI50 on Ba/F3-KIF5B-RET cell was determined as 4.19 nM. The “inhibitory activity against G810R (in words)” value against RET G810R kinase is recorded as “good inhibitory activity”.

Take `COc1ccc(CN2C3CC2CN(c2ccc(-c4cc(NC(C)C)cn5ncc(C#N)c45)cn2)C3)cn1` [Compound 69, 6-(isopropylamino)-4-(6-(6-((6-methoxypyridin-3-yl)methyl)-3,6-diazabicyclo[3.1.1]heptyl-3-yl)pyridin-3-yl)pyrazolo[1,5-a]pyridine-3-carbonitrile]: the pIC50 was 7.57 at RET G810S kinase, 7.37 on VEGFR2 kinase, 7.37 against RET G810R kinase and 9.33 at Wild-type RET kinase. The “inhibitory activity against G810S (in words)” value against RET G810S kinase was “good inhibitory activity”. The GI50 at Ba/F3-KIF5B-RET cell was determined as 4.14 nM. Also, the “inhibitory activity against G810R (in words)” value on RET G810R kinase was “good inhibitory activity”.

In the case of `COc1ccc(CN2C3CC2CN(c2ccc(-c4cc(N5CCOCC5)cn5ncc(C#N)c45)cn2)C3)cn1` [Compound 70, 4-(6-(6-((6-methoxypyridin-3-yl)methyl)-3,6-diazabicyclo[3.1.1]heptyl-3-yl)pyridin-3-yl)-6-morpholinopyrazolo[1,5-a]pyridine-3-carbonitrile], the pIC50 is 7.98 against RET G810S kinase, 7.24 on VEGFR2 kinase, 7.50 against RET G810R kinase and 9.62 on Wild-type RET kinase. Besides, the “inhibitory activity against G810S (in words)” value against RET G810S kinase is on record as “good inhibitory activity”. The GI50 on Ba/F3-KIF5B-RET cell was 1.97 nM. In addition, the “inhibitory activity against G810R (in words)” value against RET G810R kinase is recorded as “good inhibitory activity”.
